We go through one compound from ChEMBL document CHEMBL1150543, “Semisynthesis and biological evaluation of brevifoliol 13-[N-benzoyl-(-2R,3S)-3-phenylisoserinate]” (1993).

Test [1] deals with B16. As to the kind of experiment: Effective dose against B16 melanoma cells in cytotoxicity assay. To be noted: Mus musculus, read-out: ED50 (the source's name). The test is classed as functional.
The subject of test [2] is B16. In words: Effective dose against B16 melanoma cells in microtubule assembly assay. As to conditions: Mus musculus, read-out: ED50 (the source's name). The test is classed as functional.

`CC(=O)O[C@H]1C(=O)[C@@]2(C)[C@H]([C@H](OC(=O)c3ccccc3)[C@]3(O)C[C@H](OC(=O)[C@H](O)[C@@H](NC(=O)c4ccccc4)c4ccccc4)C(C)=C1C3(C)C)[C@]1(OC(C)=O)CO[C@@H]1C[C@@H]2O` [PACLITAXEL]: the EC50 came out at 27 nM with B16 [1] and 1000 nM in the test on B16 [2].
